# Results from patent US20050106152A1, “Preventives/remedies for cancer” (priority 2001, published 2005).
# Legend:
# SUV39H1 = experiment: quantitative PCR of SUV39H1 expression (RNA) after antisense oligonucleotide transfection; type: cell-based, human; conditions: MDA-MB-231 cells, 7 hours after transfection, compared to control (reverse) oligonucleotide (100%)
# Source text: First, the antisense (SEQ ID NO: 4) to the full-length sequence shown by SEQ ID NO: 3 was designed. Thereafter, phosphorothioated oligonucleotide was synthesized, purified on HPLC and used for the transfection test (Amersham Pharmacia Biotech). For control oligonucleotide, a reverse sequence (SEQ ID NO: 5) of the base sequence represented by SEQ ID NO: 4 was likewise phosphorothioated, purified on HPLC and used for the test (Amersham Pharmacia Biotech).
# Breast cancer cell line MDA-MB-231 (In Vitro, 14 (11), 911-915, 1978, purchased from ATCC) was used as cells to be tested and on the day before transfecting the oligonucleotide, the cells were plated in 18×10^3 on a 24-well plate (manufactured by Falcon). To transfect the oligonucleotide, OligofectAMINE (manufactured by Invitrogen) was used to follow its protocol. In accordance with the protocol of RNeasy mini kit (manufactured by Qiagen), RNA was extracted 7 hours after the transfection and cDNA was prepared using TaqMan Reverse Transcription Reagents (manufactured by Applied Biosystems). Using 2 primers (SEQ ID NO: 6 and SEQ ID NO: 7) and probe (SEQ ID NO: 8; Amersham Pharmacia Biotech), quantitative PCR was carried out by ABI PRISM TM 7700 Sequence Detector (manufactured by Applied Biosystems). […]
# [1] = tested on: Breast cancer cell line MDA-MB-231; experiment: apoptosis by cell death detection ELISA after antisense oligonucleotide transfection; type: cell-based, human; conditions: MDA-MB-231 cells, 3 days after transfection, compared to control (100%)
substance,measurement,setting,value
"antisense: phosphorothioated antisense oligonucleotide (SEQ ID NO: 4) to the full-length SUV39H1 sequence shown by SEQ ID NO: 3 (antisense ATGCGTCCCAGATGGCTGCG; all phosphorothioate, sugars by position and methylation of C not given here)",expression (RNA) of SUV39H1,SUV39H1,70%
same,apoptosis,[1],213%
